Results taken from the kinase profiling compilation of Christmann-Franck et al. (2016).

Legend:
Assay in all cases: radiometric filter-binding kinase assay, Kinaseprofiler
ACVR1B (human) = ACVR1B (human) (UniProt P36896); settings: ATP 10 µM
CAMK1 (human) = CAMK1 (human) (UniProt Q14012); settings: ATP 200 µM
CAMK1D (human) = CAMK1D (human) (UniProt Q8IU85); settings: ATP 15 µM
CAMK2G (human) = CAMK2G (human) (UniProt Q13555); settings: ATP 10 µM
CDC42BPB (human) = CDC42BPB (human) (UniProt Q9Y5S2); settings: ATP 10 µM
CHUK (human) = CHUK (human) (UniProt O15111); settings: ATP 10 µM
CSNK1G1 (human) = CSNK1G1 (human) (UniProt Q9HCP0); settings: ATP 15 µM
EPHA4 (human) = EPHA4 (human) (UniProt P54764); settings: ATP 15 µM
EPHA7 (human) = EPHA7 (human) (UniProt Q15375); settings: ATP 90 µM
EPHB4 (human) = EPHB4 (human) (UniProt P54760); settings: ATP 10 µM
GCK (human) = GCK (human) (UniProt Q12851); settings: ATP 200 µM
GRK5 (human) = GRK5 (human) (UniProt P34947); settings: ATP 15 µM
GRK6 (human) = GRK6 (human) (UniProt P43250); settings: ATP 45 µM
[1] = biological target: JAK3 JH1 catalytic (human) (UniProt P52333); settings: ATP 10 µM
MAP3K5 (human) = MAP3K5 (human) (UniProt Q99683); settings: ATP 200 µM
MAPK12 (human) = MAPK12 (human) (UniProt P53778); settings: ATP 15 µM
MAPK3 (human) = MAPK3 (human) (UniProt P27361); settings: ATP 70 µM
NEK6 (human) = NEK6 (human) (UniProt Q9HC98); settings: ATP 45 µM
NTRK1 (human) = NTRK1 (human) (UniProt P04629); settings: ATP 120 µM
PAK7 (human) = PAK7 (human) (UniProt Q9P286); settings: ATP 15 µM
PASK (human) = PASK (human) (UniProt Q96RG2); settings: ATP 15 µM
PRKCB1 (human) = PRKCB1 (human) (UniProt P05771); settings: ATP 10 µM
PTK2 (human) = PTK2 (human) (UniProt Q05397); settings: ATP 70 µM
PTK6 (human) = PTK6 (human) (UniProt Q13882); settings: ATP 15 µM
ROCK2 (human) = ROCK2 (human) (UniProt O75116); settings: ATP 15 µM
RPS6KA3 KD1 KD2 (human) = RPS6KA3 KD1 KD2 (human) (UniProt P51812); settings: ATP 10 µM
SRC (human) = SRC (human) (UniProt P12931); settings: ATP 200 µM
SRPK2 (human) = SRPK2 (human) (UniProt P78362); settings: ATP 10 µM
STK10 (human) = STK10 (human) (UniProt O94804); settings: ATP 200 µM
STK11 (human) = STK11 (human) (UniProt Q15831); settings: ATP 155 µM
STK17A (human) = STK17A (human) (UniProt Q9UEE5); settings: ATP 10 µM
TNK2 (human) = TNK2 (human) (UniProt Q07912); settings: ATP 70 µM
WNK2 (human) = WNK2 (human) (UniProt Q9Y3S1); settings: ATP 200 µM

Chain of SRPK2 (human) (P78362 whole entry, looked up): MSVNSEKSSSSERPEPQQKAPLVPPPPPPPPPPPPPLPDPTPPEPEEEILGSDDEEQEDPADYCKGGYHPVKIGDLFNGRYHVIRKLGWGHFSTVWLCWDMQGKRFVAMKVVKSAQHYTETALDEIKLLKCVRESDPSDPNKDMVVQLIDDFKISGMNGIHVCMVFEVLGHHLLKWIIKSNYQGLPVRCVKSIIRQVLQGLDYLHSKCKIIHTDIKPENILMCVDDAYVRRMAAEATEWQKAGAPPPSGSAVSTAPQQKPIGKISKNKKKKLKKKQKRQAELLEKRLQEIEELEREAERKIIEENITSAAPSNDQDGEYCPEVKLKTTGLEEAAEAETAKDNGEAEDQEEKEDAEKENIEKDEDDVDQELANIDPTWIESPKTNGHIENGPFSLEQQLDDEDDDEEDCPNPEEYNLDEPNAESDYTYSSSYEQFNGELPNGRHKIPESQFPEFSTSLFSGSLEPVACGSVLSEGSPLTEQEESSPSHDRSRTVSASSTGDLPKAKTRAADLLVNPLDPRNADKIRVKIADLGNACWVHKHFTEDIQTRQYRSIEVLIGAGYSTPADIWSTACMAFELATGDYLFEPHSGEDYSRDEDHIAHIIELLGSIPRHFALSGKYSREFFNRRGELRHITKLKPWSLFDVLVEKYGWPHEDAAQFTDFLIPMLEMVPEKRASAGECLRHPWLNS
Chain of TNK2 (human) (Q07912 whole entry, looked up): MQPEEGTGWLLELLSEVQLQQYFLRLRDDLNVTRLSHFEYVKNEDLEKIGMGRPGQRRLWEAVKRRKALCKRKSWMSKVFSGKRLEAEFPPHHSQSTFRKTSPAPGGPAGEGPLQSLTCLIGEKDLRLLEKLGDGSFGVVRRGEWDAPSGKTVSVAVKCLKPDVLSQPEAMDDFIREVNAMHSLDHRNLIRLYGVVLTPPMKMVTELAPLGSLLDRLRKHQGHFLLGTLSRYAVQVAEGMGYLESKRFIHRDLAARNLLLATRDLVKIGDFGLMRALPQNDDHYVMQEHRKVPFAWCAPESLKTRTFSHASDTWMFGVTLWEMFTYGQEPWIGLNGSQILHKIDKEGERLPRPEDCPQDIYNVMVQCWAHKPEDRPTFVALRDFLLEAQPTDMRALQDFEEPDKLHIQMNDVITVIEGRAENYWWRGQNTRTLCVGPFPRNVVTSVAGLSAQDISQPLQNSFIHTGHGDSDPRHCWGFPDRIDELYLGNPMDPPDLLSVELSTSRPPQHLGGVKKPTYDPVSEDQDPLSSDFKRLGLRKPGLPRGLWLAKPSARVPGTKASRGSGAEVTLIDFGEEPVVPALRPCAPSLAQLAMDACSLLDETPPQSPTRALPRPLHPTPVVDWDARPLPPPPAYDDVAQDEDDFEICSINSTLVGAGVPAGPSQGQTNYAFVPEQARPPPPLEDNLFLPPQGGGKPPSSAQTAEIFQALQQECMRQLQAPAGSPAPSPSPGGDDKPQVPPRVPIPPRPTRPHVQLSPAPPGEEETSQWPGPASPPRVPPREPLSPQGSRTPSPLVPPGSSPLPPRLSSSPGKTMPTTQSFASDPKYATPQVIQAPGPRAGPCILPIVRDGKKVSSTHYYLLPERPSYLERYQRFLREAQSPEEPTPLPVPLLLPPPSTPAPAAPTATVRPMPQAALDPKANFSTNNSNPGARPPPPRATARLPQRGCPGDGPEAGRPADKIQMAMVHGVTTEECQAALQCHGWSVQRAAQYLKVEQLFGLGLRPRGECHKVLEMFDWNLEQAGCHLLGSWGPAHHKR
Chain of EPHA4 (human) (P54764 whole entry, looked up): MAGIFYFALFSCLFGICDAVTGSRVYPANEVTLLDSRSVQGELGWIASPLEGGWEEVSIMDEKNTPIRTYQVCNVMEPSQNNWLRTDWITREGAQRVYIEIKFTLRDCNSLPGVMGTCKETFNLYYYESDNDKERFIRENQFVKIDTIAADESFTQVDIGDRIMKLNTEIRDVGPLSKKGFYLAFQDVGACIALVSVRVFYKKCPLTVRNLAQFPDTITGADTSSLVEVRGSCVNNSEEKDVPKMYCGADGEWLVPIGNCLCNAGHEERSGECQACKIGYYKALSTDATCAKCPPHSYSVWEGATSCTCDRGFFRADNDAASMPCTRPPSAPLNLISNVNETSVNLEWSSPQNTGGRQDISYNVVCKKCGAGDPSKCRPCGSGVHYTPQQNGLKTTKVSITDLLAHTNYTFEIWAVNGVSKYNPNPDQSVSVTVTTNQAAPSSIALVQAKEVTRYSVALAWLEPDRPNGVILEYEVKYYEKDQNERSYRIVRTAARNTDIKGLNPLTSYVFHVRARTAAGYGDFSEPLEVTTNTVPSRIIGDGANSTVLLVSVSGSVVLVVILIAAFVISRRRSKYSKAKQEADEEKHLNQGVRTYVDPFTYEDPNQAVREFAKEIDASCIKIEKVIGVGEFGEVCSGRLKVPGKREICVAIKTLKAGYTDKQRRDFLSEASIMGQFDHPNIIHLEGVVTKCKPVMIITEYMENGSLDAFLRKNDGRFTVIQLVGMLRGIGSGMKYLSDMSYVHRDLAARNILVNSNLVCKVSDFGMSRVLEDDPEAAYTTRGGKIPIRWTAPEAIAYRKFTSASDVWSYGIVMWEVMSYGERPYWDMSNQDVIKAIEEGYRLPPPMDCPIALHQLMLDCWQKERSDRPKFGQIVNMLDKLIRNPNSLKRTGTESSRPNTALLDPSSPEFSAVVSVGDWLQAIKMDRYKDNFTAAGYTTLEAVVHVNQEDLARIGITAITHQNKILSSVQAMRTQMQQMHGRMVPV
Chain of STK11 (human) (Q15831 whole entry, looked up): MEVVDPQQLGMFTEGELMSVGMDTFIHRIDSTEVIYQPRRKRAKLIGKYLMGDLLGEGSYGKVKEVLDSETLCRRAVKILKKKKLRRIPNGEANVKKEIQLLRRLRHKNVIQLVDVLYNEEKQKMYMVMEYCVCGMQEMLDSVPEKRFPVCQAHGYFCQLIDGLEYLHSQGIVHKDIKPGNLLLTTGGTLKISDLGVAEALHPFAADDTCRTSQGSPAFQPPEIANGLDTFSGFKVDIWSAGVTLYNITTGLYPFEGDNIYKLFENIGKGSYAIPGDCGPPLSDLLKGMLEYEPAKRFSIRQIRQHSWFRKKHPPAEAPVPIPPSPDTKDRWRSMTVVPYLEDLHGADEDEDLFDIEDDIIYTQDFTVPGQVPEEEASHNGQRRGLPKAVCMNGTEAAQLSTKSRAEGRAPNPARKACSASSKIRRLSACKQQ
Chain of PRKCB1 (human) (P05771 whole entry, looked up): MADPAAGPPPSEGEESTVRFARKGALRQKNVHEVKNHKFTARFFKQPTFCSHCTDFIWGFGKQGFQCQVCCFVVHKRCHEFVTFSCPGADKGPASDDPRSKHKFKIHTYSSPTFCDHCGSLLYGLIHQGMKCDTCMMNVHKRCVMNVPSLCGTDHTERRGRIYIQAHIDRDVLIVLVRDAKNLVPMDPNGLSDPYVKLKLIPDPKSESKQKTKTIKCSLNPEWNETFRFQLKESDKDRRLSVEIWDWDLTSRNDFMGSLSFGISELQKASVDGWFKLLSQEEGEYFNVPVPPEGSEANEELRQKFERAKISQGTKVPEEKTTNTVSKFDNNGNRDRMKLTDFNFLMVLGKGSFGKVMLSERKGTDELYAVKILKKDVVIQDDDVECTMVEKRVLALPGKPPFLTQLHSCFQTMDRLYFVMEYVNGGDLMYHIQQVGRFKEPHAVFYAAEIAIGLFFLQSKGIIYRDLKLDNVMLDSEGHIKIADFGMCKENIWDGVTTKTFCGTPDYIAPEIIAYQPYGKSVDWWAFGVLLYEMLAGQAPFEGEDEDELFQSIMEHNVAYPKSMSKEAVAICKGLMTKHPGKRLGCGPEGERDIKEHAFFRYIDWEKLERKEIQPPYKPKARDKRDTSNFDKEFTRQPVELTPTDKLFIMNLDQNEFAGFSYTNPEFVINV
Chain of CAMK1 (human) (Q14012 whole entry, looked up): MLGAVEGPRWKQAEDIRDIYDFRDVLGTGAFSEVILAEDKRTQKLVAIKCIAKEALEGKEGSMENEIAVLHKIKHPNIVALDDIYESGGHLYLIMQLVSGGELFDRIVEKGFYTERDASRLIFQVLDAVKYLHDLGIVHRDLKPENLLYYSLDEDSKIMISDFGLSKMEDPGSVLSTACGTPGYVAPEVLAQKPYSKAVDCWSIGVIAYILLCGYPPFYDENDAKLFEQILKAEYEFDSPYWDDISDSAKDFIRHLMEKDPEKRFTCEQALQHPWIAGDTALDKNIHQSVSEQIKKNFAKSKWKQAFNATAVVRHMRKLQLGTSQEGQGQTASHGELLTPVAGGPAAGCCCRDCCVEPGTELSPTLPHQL
Chain of GRK6 (human) (P43250 whole entry, looked up): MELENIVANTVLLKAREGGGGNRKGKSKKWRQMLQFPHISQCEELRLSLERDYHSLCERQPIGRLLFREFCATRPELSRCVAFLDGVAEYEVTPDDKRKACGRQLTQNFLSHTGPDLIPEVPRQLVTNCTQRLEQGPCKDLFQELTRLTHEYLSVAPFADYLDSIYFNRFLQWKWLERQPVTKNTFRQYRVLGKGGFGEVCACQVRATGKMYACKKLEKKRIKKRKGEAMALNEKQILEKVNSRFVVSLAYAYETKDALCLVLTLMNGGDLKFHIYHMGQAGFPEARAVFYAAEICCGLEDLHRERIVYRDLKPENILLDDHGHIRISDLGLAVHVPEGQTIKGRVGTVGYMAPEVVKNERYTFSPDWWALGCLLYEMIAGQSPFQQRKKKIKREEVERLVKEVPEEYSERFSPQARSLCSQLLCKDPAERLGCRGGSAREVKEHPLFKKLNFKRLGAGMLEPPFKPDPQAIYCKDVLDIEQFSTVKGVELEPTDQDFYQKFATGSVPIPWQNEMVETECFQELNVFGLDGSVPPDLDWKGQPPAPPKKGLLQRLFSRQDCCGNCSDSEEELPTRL

residual activity (ACVR1B (human); compound 1.0 µM): 86%
residual activity (ACVR1B (human); compound 10.0 µM): 84%
residual activity (CAMK1 (human); compound 1.0 µM): 77%
residual activity (CAMK1 (human); compound 10.0 µM): 32%
residual activity (CAMK1D (human); compound 1.0 µM): 70%
residual activity (CAMK1D (human); compound 10.0 µM): 38%
residual activity (CAMK2G (human); compound 1.0 µM): 37%
residual activity (CAMK2G (human); compound 10.0 µM): 8%
residual activity (CDC42BPB (human); compound 1.0 µM): 90%
residual activity (CDC42BPB (human); compound 10.0 µM): 95%
residual activity (CHUK (human); compound 1.0 µM): 57%
residual activity (CHUK (human); compound 10.0 µM): 21%
residual activity (CSNK1G1 (human); compound 1.0 µM): 99%
residual activity (CSNK1G1 (human); compound 10.0 µM): 48%
residual activity (EPHA4 (human); compound 1.0 µM): 105%
residual activity (EPHA4 (human); compound 10.0 µM): 106%
residual activity (EPHA7 (human); compound 1.0 µM): 80%
residual activity (EPHA7 (human); compound 10.0 µM): 41%
residual activity (EPHB4 (human); compound 1.0 µM): 89%
residual activity (EPHB4 (human); compound 10.0 µM): 55%
residual activity (GCK (human); compound 1.0 µM): 16%
residual activity (GCK (human); compound 10.0 µM): 2%
residual activity (GRK5 (human); compound 1.0 µM): 84%
residual activity (GRK5 (human); compound 10.0 µM): 63%
residual activity (GRK6 (human); compound 1.0 µM): 87%
residual activity (GRK6 (human); compound 10.0 µM): 81%
residual activity ([1]; compound 1.0 µM): 57%
residual activity ([1]; compound 10.0 µM): 9%
residual activity (MAP3K5 (human); compound 1.0 µM): 36%
residual activity (MAP3K5 (human); compound 10.0 µM): 5%
residual activity (MAPK12 (human); compound 1.0 µM): 82%
residual activity (MAPK12 (human); compound 10.0 µM): 61%
residual activity (MAPK3 (human); compound 1.0 µM): 59%
residual activity (MAPK3 (human); compound 10.0 µM): 72%
residual activity (NEK6 (human); compound 1.0 µM): 107%
residual activity (NEK6 (human); compound 10.0 µM): 101%
residual activity (NTRK1 (human); compound 1.0 µM): 10%
residual activity (NTRK1 (human); compound 10.0 µM): -1%
residual activity (PAK7 (human); compound 1.0 µM): 99%
residual activity (PAK7 (human); compound 10.0 µM): 64%
residual activity (PASK (human); compound 1.0 µM): 125%
residual activity (PASK (human); compound 10.0 µM): 81%
residual activity (PRKCB1 (human); compound 1.0 µM): 102%
residual activity (PRKCB1 (human); compound 10.0 µM): 104%
residual activity (PTK2 (human); compound 1.0 µM): 52%
residual activity (PTK2 (human); compound 10.0 µM): 9%
residual activity (PTK6 (human); compound 1.0 µM): 95%
residual activity (PTK6 (human); compound 10.0 µM): 95%
residual activity (ROCK2 (human); compound 1.0 µM): 74%
residual activity (ROCK2 (human); compound 10.0 µM): 39%
residual activity (RPS6KA3 KD1 KD2 (human); compound 1.0 µM): 54%
residual activity (RPS6KA3 KD1 KD2 (human); compound 10.0 µM): 32%
residual activity (SRC (human); compound 1.0 µM): 89%
residual activity (SRC (human); compound 10.0 µM): 64%
residual activity (SRPK2 (human); compound 1.0 µM): 97%
residual activity (SRPK2 (human); compound 10.0 µM): 57%
residual activity (STK10 (human); compound 1.0 µM): 87%
residual activity (STK10 (human); compound 10.0 µM): 62%
residual activity (STK11 (human); compound 1.0 µM): 75%
residual activity (STK11 (human); compound 10.0 µM): 41%
residual activity (STK17A (human); compound 1.0 µM): 6%
residual activity (STK17A (human); compound 10.0 µM): 2%
residual activity (TNK2 (human); compound 1.0 µM): 50%
residual activity (TNK2 (human); compound 10.0 µM): 12%
residual activity (WNK2 (human); compound 1.0 µM): 79%
residual activity (WNK2 (human); compound 10.0 µM): 77%
SMILES: O=C1c2ccccc2-c2n[nH]c3cccc1c23
